Results published in patent publication US7968697B2, “Hepatitis C virus non-structural NS3/4A fusion gene” (ChronTech Pharma AB, priority 2005, dated 2011).
Values joined by “and” are separate entries in the source; they are usually repeats but may differ in a detail not shown here. Equal values may be shown once.

Key:
rNS3 = test: EIA antibody titre to rNS3 after immunization with rNS3 with or without ribavirin; assay type: in vivo, Balb/c mice; conditions: for Group mean titre (mean ± SD) to rNS3, Week 4 / Group mean titre (mean ± SD) to rNS3, Week 6 / Group mean titre (mean ± SD) to rNS3, Week 8 / Antibody titre to rNS3 at Week 4 / Antibody titre to rNS3 at Week 6 / Antibody titre to rNS3 at Week 8: i.p.; for Endpoint titre of rNS3 IgG at Week 1 / Endpoint titre of rNS3 IgG at Week 2 / Endpoint titre of rNS3 IgG at Week 3 / Antibody titre to rNS3 at Week 4 / Antibody titre to rNS3 at Week 6 / Antibody titre to rNS3 at Week 8: individual mouse
Procedure: In a first set of experiments, groups of three to five Balb/c mice (BK Universal, Uppsala, Sweden) were immunized i.p or s.c. (e.g., at the base of the tail) with 10 μg or 100 μg of recombinant hepatitis C virus non-structural 3 (rNS3) protein. […] Mice were injected with a total volume of 100 μl per injection.
At two and four weeks following i.p. immunization, all mice were bled by retro-orbital sampling. Serum samples were collected and analyzed for the presence of antibodies to rNS3. To determine the antibody titer, an enzyme immunoassay (EIA) was performed. (See e.g., Hultgren et al., J Gen Virol. 79:2381-91 (1998) and Hultgren et al., Clin. Diagn. Lab. Immunol. 4:630-632 (1997)). The antibody levels were recorded as the highest serum dilution giving an optical density at 405 nm more than twice that of non-immunized mice.
At four, six and eight weeks the mice were bled and serum was separated and frozen. After completion of the study, sera were tested for the levels of antibodies to recombinant NS3, as described above. Mean antibody levels to rNS3 were compared between the groups using Student's t-test (parametric analysis) or Mann-Whitney (non-parametric analysis) and the software package StatView 4.5 (Abacus Concepts, Berkely, Calif.). […] The values given represent end point titres to recombinant rNS3.
The levels of antibody to the antigen were then determined by EIA.
A second set of experiments was also performed. […] The mice were bled at week six and rNS3-specific IgG levels were determined by EIA as described previously.

NS3 = test: NS3-specific IgG subclass EIA after rNS3 with or without ribavirin; assay type: in vivo, mice; conditions: 0.1 or 1.0 mg ribavirin with 10 μg rNS3 i.p. at weeks 0 and 4; bled at week six
Procedure: The mice were bled at week six and NS3-specific IgG subclasses were determined by EIA as described previously.

CD4+ T cell = test: In vitro recall assay, lymph node CD4+ T cell proliferation ([3H] thymidine); assay type: cell-based, mice; conditions: 100 μg rNS3 mixed with 1 mg ribavirin s.c.; ten days post-immunization; 96 h of culture
Procedure: This assay can be used with any ribavirin derivative or combinations of ribavirin derivatives to determine the extent that a particular vaccine formulation modulates a cellular immune response. […] The mice were sacrificed ten days post-immunization and their lymph nodes were harvested and drained. In vitro recall assays were then performed. (See e.g., Hultgren et al., J Gen Virol. 79:2381-91 (1998) and Hultgren et al., Clin. Diagn. Lab. Immunol. 4:630-632 (1997)). The amount of CD4^+ T cell proliferation was determined at 96 h of culture by the incorporation of [^3H] thymidine.

HBsAg = test: EIA antibody titer to HBsAg after Engerix vaccine with or without ribavirin; assay type: in vivo, mice; conditions: 1 mg ribavirin mixed with 2 μg Engerix i.p., booster week four, bled week six
Description: (Engerix, SKB). […] A booster containing the same mixture was given on week four and all mice were bled on week six.

[1] = tested on: NS3/4A-expressing EL-4 cells; test: In vivo challenge with NS3/4A-expressing EL-4 lymphoma cells, prophylactic and therapeutic; conditions: immunized only once; C57BL/6 mice
Procedure: To confirm that inhibition of tumor growth using the NS3/4A-expressing EL-4 cell line is fully dependent on an NS3/4A-specific immune response a control experiment was performed. Groups of ten C57BL/6 mice were either left nonimmunized, or immunized twice with the coNS3/4A plasmid. Two weeks after the last immunization the mice were challenged with an s.c. injection of 10^6 native EL-4 or NS3/4A-expressing EL-4 cells (NS3/4A-EL-4). An NS3/4A-specific immune response was required for protection, since only the immunized mice were protected against growth of the NS3/4A-EL-4 cell line (FIG. 13). Thus, this H-2^b-restricted model behaves similarly to the SP2/0H-2^d restricted model.
The tumor challenge model was then used to evaluate how effective the different immunogens were in priming a protective immunity against growth of NS3/4A-EL-4 tumor cells in vivo. […]
In vivo challenge of immunized mice with the NS3/4A-expressing SP2/0 myeloma or EL-4 lymphoma cell line was performed according to the method described by Encke et al., supra. […] The kinetics of the tumor growth was determined by measuring the tumor size through the skin at days six to 20. […]
To test the therapeutic effect of the vaccines groups of mice were inoculated with the tumor cells as described above. […] The tumor growth was monitored from day 6 to day 20.

[2] = 0.1 mg ribavirin mixed with 20 μg rNS3
[3] = 1.0 mg ribavirin mixed with 20 μg rNS3
[4] = 10.0 mg ribavirin mixed with 20 μg rNS3
[5] = 10 mg ribavirin with 10 μg rNS3
[6] = 10 mg ribavirin with 50 μg rNS3

Compound: NC(=O)c1ncn([C@@H]2O[C@H](CO)[C@@H](O)[C@H]2O)n1 [ribavirin, 1-β-D-ribofuranosyl-1,2,4-triazole-3-carboxamide]
- Mean endpoint titre of rNS3 IgG at Week 1 (rNS3; [2]): 1110 ± 1484
- Mean endpoint titre of rNS3 IgG at Week 2 (rNS3; [2]): 5060 ± 6921
- antibody titer compared with formulations composed of only rNS3 (rNS3; 1 mg of ribavirin and either 10 μg or 100 μg of rNS3, two weeks post-immunization): significantly greater antibody titer
- Mean endpoint titre of rNS3 IgG at Week 1 (rNS3; [3]): 360
- Mean endpoint titre of rNS3 IgG at Week 3 (rNS3; [3]): 5760 ± 6235
- Group mean titre (mean ± SD) to rNS3, Week 4 (rNS3; 1 mg ribavirin with 10 μg rNS3): 252 ± 107
- Group mean titre (mean ± SD) to rNS3, Week 6 (rNS3; 1 mg ribavirin with 10 μg rNS3): 28071 ± 16195
- Group mean titre (mean ± SD) to rNS3, Week 8 (rNS3; 1 mg ribavirin with 10 μg rNS3): 36642 ± 67565
- Group mean titre (mean ± SD) to rNS3, Week 4 (rNS3; 1 mg ribavirin with 50 μg rNS3): 150 ± 124
- Group mean titre (mean ± SD) to rNS3, Week 6 (rNS3; 1 mg ribavirin with 50 μg rNS3): 52500 ± 55549
- Group mean titre (mean ± SD) to rNS3, Week 8 (rNS3; 1 mg ribavirin with 50 μg rNS3): 37500 ± 62105
- Group mean titre (mean ± SD) to rNS3, Week 4 (rNS3; 3 mg ribavirin with 10 μg rNS3): 180 ± 128
- Group mean titre (mean ± SD) to rNS3, Week 6 (rNS3; 3 mg ribavirin with 10 μg rNS3): 30000 ± 13887
- Group mean titre (mean ± SD) to rNS3, Week 8 (rNS3; 3 mg ribavirin with 10 μg rNS3): 22500 ± 34637
- Group mean titre (mean ± SD) to rNS3, Week 4 (rNS3; 3 mg ribavirin with 50 μg rNS3): 387 ± 513
- Group mean titre (mean ± SD) to rNS3, Week 6 (rNS3; 3 mg ribavirin with 50 μg rNS3): 30000 ± 13887
- Mean endpoint titre of rNS3 IgG at Week 1 (rNS3; [4]): 360
- Mean endpoint titre of rNS3 IgG at Week 2 (rNS3; [4]): 5760 ± 6235
- Mean endpoint titre of rNS3 IgG at Week 3 (rNS3; [4]): 30960 ± 40888
- Group mean titre (mean ± SD) to rNS3, Week 4 (rNS3; [5]): 220 ± 139
- Group mean titre (mean ± SD) to rNS3, Week 4 (rNS3; [6]): 140 ± 124
- Group mean titre (mean ± SD) to rNS3, Week 6 (rNS3; [6]): 10929 ± 11928
- Group mean titre (mean ± SD) to rNS3, Week 8 (rNS3; [6]): 15214 ± 15380
- adjuvant effect on antibody levels, kinetics (rNS3; higher doses (1-10 mg) of ribavirin with 20 μg rNS3): enhance antibody levels at week three
- Endpoint titre of rNS3 IgG at Week 1 (rNS3; [2]): 2160 and 60 and <60
- Endpoint titre of rNS3 IgG at Week 2 (rNS3; [2]): 12960 and 60 and 2160
- Endpoint titre of rNS3 IgG at Week 3 (rNS3; [2]): 2160 (2×) and 60
- Endpoint titre of rNS3 IgG at Week 1 (rNS3; [3]): <60 (2×) and 360
- Endpoint titre of rNS3 IgG at Week 2 (rNS3; [3]): 60 and 2160 (2×)
- Endpoint titre of rNS3 IgG at Week 3 (rNS3; [3]): 12960 and 2160 (2×)
- Antibody titre to rNS3 at Week 4 (rNS3; 1 mg ribavirin with 10 μg rNS3): 300 (4×) and <60 (3×) and 60
- Antibody titre to rNS3 at Week 6 (rNS3; 1 mg ribavirin with 10 μg rNS3): 37500 (5×) and 1500 and 7500
- Antibody titre to rNS3 at Week 8 (rNS3; 1 mg ribavirin with 10 μg rNS3): 37500 and 1500 and 187500 and 7500 (4×)
- Antibody titre to rNS3 at Week 4 (rNS3; 1 mg ribavirin with 50 μg rNS3): 60 (5×) and 300 (3×)
- Antibody titre to rNS3 at Week 6 (rNS3; 1 mg ribavirin with 50 μg rNS3): 7500 and 37500 (6×) and 187500
- Antibody titre to rNS3 at Week 8 (rNS3; 1 mg ribavirin with 50 μg rNS3): 7500 (5×) and 187500 and 37500 (2×)
- Antibody titre to rNS3 at Week 4 (rNS3; 3 mg ribavirin with 10 μg rNS3): 60 (4×) and 300 (4×)
- Antibody titre to rNS3 at Week 6 (rNS3; 3 mg ribavirin with 10 μg rNS3): 37500 (6×) and 7500 (2×)
- Antibody titre to rNS3 at Week 8 (rNS3; 3 mg ribavirin with 10 μg rNS3): 7500 (4×) and 37500 (4×)
- Antibody titre to rNS3 at Week 4 (rNS3; 3 mg ribavirin with 50 μg rNS3): 60 (3×) and 300 (3×) and 1500
- Antibody titre to rNS3 at Week 6 (rNS3; 3 mg ribavirin with 50 μg rNS3): 37500 (6×) and 7500 (2×)
- Antibody titre to rNS3 at Week 8 (rNS3; 3 mg ribavirin with 50 μg rNS3): 7500 (5×) and 37500 (3×)
- Endpoint titre of rNS3 IgG at Week 1 (rNS3; [4]): 360 (2×) and <60
- Endpoint titre of rNS3 IgG at Week 2 (rNS3; [4]): 12960 and 2160 (2×)
- Endpoint titre of rNS3 IgG at Week 3 (rNS3; [4]): 77760 and 12960 and 2160
- Antibody titre to rNS3 at Week 4 (rNS3; [5]): 300 (2×) and <60 (5×) and 60
- Antibody titre to rNS3 at Week 6 (rNS3; [5]): 37500 (3×) and 300 (2×) and 7500 (2×)
- Antibody titre to rNS3 at Week 8 (rNS3; [5]): 37500 (3×) and 300 (2×) and 7500 (2×)
- Antibody titre to rNS3 at Week 4 (rNS3; [6]): 300 (2×) and 60 (5×)
- Antibody titre to rNS3 at Week 6 (rNS3; [6]): 7500 (5×) and 37500 (2×) and 1500
- Antibody titre to rNS3 at Week 8 (rNS3; [6]): 7500 (5×) and 37500 (2×) and 1500
- adjuvant effect on antibody levels, kinetics (rNS3; low doses (<1 mg) of ribavirin with 20 μg rNS3): enhance antibody levels at week one but not at week three
- effect on the NS3-specific IgG subclass response (NS3): does not change the IgG subclass response
- T cell proliferative response compared with 100 μg rNS3 in PBS (CD4+ T cell): much greater T cell proliferative response
- effect on the antibody response to HBsAg vaccine (HBsAg): enhanced the response

Compound: GAVQNEVTL (Artificial Peptide, NS3/4A H-2D Binding Peptide) [NS3-derived CTL peptide, ID; NO.: 37]
- protection against growth of NS3/4A-EL-4 tumors [1]: not protected
